For 90 molecules, melting point results are on record in a melting point compilation (Tetko et al.; mined from patent text by program, amines drawn as free bases though some values may be those of a salt).

Broadly, the melting point is the temperature of the solid-liquid transition. `NC(=O)CCCSc1cccc(Br)n1` yielded a melting point of 87 to 88 °C.
Next, `CC(C)c1nc(-c2cc3cc(OCCNC[C@H](O)c4cccc(Cl)c4)ccc3o2)no1`: 84 to 87 °C.
Next, `CC(C)(C)OC(=O)N1CCc2c(n(CCOc3ccccc3)c3cc(Cl)cc(Cl)c23)CC1`: 132 to 133 °C; `FC(F)(F)C(=C1SCCCS1)c1ccccc1`: 87 to 88 °C.
Then `COc1cccc2c1nc(C(F)F)n2-c1nc(Nc2ccc(N)nc2)nc(N2CCOCC2)n1`, with 267 to 270 °C; and `CC(C)(O)CON1C(C)(C)CC(O)CC1(C)C`, with 127 to 131 °C.
For `CC(C)C1N2C=CC=CC2=CC1(C=C(Br)Br)c1ccc(F)cc1` (stereo not given), the melting point fell in the range of 134 to 135 °C.
Regarding `CC1(C)C=C(c2ccccc2O)c2cc(C#N)ccc2O1`, the melting point fell in the range of 139 to 140 °C.
For the molecule `C[C@@H]1OC(=O)C[C@H]2O[C@@H]12`, the melting point was in the range of 51 to 52 °C.
Then `Cc1cc(F)ccc1-c1nc(NC2CCCCC2)nc2c1ccc(=O)n2-c1c(F)cccc1F`, with 218 to 219 °C; and `Cc1nnc(C=Cc2ccccc2OCC(O)CCl)s1` (stereo not given), with 168 to 170 °C.
Then `CCN1CCN(C(C(=O)O)c2ccc(Nc3nc(-c4cccc(NC(=O)c5cc6c(s5)CCCCC6)c4C)cn(C)c3=O)cc2)CC1` (stereo not given), with 168 to 170 °C; and `FC(F)(F)c1ccc(-c2ncn(CCCN3CCOCC3)c2-c2ccncc2)cc1`, with 133 °C; and `CC(C)(C)c1cc(C(c2ccc(C(F)(F)F)cc2)N2CCCCC2)c(O)c(C(C)(C)C)c1` (stereo not given), with 150 to 152 °C.
Turning to `O=CCC1Cc2ccc(F)cc2C1=O` (racemic), the melting point is 62 °C.
Next, `CCC(CC)Cn1c(=O)c(=O)[nH]c2cc([N+](=O)[O-])c(-n3cccc3)cc21`: 154 to 155 °C.
Then `CCCNC(C)=C1C(=O)OC(=O)C(C(C)=O)=C1O`, with 145 to 148 °C.
Regarding `Cc1ccc(NS(=O)(=O)c2ccc(N)cc2)cc1`, the melting point was in the range of 174 to 176 °C.
Next, `COC1=C(OC)C(=O)C2=C(CCC(CCOc3ccc(OC)cc3)CC2)C1=O`: 76 to 77 °C; `Cn1cc(C(N)=O)c(-c2ccc([N+](=O)[O-])o2)n1`: 251 to 252 °C.
Then `CC(C)(Cn1c(CO)nc2c(N)nc3ccccc3c21)CS(C)(=O)=O`, with 230 to 232 °C; and `CC(=O)Oc1c(C)sc2ccccc12`, with 75 to 77 °C.
Next, `CC(C)(C)c1ccc(O)c(CNS(=O)(=O)O)c1`: 260 to 262 °C.
`CN(C(=O)CN(C(=O)CNC(=O)Nc1cccc(/C=N/O)c1)c1ccccc1)c1ccccc1` returned a melting point of 219 °C.
Then `O=C(O)C1CCCN(C(=O)COC2CCN(C(=O)OCc3ccccc3)CC2)C1` (stereo not given), with 102 to 104 °C.
Then `COc1cccc(CN(CCC(=O)O)c2nc(NC(=O)Nc3ccccc3OC)nc(Oc3ccc4ccccc4c3)n2)c1`, with 189 to 194 °C; and `OCC1C=CC(n2cnc3c(Cl)ncnc32)C1` (stereo not given), with 121 to 124 °C; and `CC(C)(C)C(=O)ON1C(C)(C)CC(OC(=O)c2ccccc2)CC1(C)C`, with 107 to 110 °C.
On to `CCCc1oc(C)cc(=O)c1C(=O)Nc1ccccc1`, for which the melting point fell in the range of 133 to 134 °C.
The molecule `COc1cccc(C23CCCC(C2)N(C)C3=O)c1` (stereo not given) displayed a melting point of 68 to 70 °C.
`OC(COc1ccc(-c2cc[nH]n2)cc1)CN1CCN(c2ccc(Cl)cc2)CC1` (stereo not given) showed a melting point of 211 to 212 °C.
Then `Cc1cnc(C#N)n1Cc1ccccc1`, with 51.5 to 52.5 °C; and `Cc1ccc(C(=O)c2c(C)c(C(=O)O)c(CC(=O)O)n2C)cc1`, with 229 to 230 °C.
Then `CC(C)(C)OC(=O)NCC(=O)Nc1ccccc1OCc1ccccc1`, with 80 to 82 °C; and `COc1cnc2c(-c3cccc(C(F)(F)F)c3)ccc(C)c2n1`, with 141 to 142 °C; and `CC(C)(C(=O)O)c1ccc(-c2ccc(Cl)cc2)s1`, with 146 to 148 °C.
For `NC(=O)C(N)c1ccc(F)cc1F` (stereo not given), the melting point turned out to be 143 °C.
With `Nc1cc2c(cc1[N+](=O)[O-])CC(CCO)C2` (stereo not given), the melting point lay in the range of 89 to 91 °C.
Then `CC1Cc2cc(F)c(F)cc2C1=O` (stereo not given), with 66 to 68 °C.
As to `COC(=O)N(C(C)C)C1C=C(C)CC=C1C(=O)c1ccc(F)cc1` (stereo not given), the melting point lay in the range of 98 to 102 °C.
Then `N#Cc1c(N2CCCC2)cc(-c2ccccc2)c2c1Cc1ccccc1-2`, with 210 to 212 °C; and `COc1cc2c(cc1C=O)C(C)(C)CO2`, with 75 to 76 °C; and `Oc1ccc(CCc2ccc(O)cc2)cc1`, with 199 to 200 °C.
In turn, `CCCc1c(C(=O)C(C)C)c2ccc(C(=O)OC)cc2n1Cc1ccccc1[N+](=O)[O-]` had a melting point of 166 °C.
In turn, `NS(=O)(=O)c1ccc(-c2noc(-c3cnc4ccc(-c5ccc(C(F)(F)F)cc5)cn34)n2)cc1` yielded a melting point of 288 °C.
The molecule `Cc1c(C)c2c(c(C)c1OCc1ccccc1)C(c1ccc(C(C)C)cc1)C(C)(C)O2` (stereo not given) gave a melting point of 79 to 81 °C.
As for `CC1(C)CC(=O)c2c(NCc3ccccn3)sc(-c3cc[nH]n3)c2C1`, the melting point lay in the range of 210 to 213 °C.
Molecule `CC(C)CC(NC(=O)C(NC(=O)OCc1ccccc1)C(C(=O)O)C(C)(C)C)C(=O)NC(CCCCNC(=O)OC(C)(C)C)C(=O)O` (stereo not given) displayed a melting point of 173 to 174 °C.
Next, `COSN=C1C(=O)N(C)C(=O)N1c1ccccc1F`: 124 to 127 °C; `COc1ccc(C2=c3c(c4c(c5ccccc35)=C(c3ccc(OC)cc3)CO4)NC2)cc1`: 340 °C; `Cc1ccc(C)c(Oc2ccc(C#N)cc2S(=O)(=O)N2CCNCC2)c1`: 60 to 72 °C.
Then `CC(=O)Nc1ccc(O[C@H]2CCN(C)C[C@H]2c2ccccc2)cc1` (relative stereo), with 174 to 176 °C.
The molecule `O=C(OCc1ccccc1)[C@@H]1CCC(=O)N1C(=O)c1ccccc1` showed a melting point of 101 °C.
`O=C(NC(=O)C(Br)CBr)Nc1ccccc1` (stereo not given) registered a melting point of 160 to 161 °C.
In turn, `COc1ccc(Cl)cc1NC(=O)[C@H]1[C@H](c2ccc(S(N)(=O)=O)cc2)C12CCCC2` (relative stereo) returned a melting point of 210 to 212 °C.
Next, `CCCCOc1ccc2c3c([nH]c2c1)CC(NC(C)=O)CC3` (stereo not given): 182 to 184 °C; `CC(=NO)c1ccc(C(F)(F)C(F)(F)c2ccccc2)cc1`: 137 to 139 °C.
Turning to `CN(C(=O)c1ccc(Cn2cnc3ncnc-3c2)cc1)C1CCCCC1`, the melting point lay within 229 to 230 °C.
For `CCn1c(=O)cc(C)c2cc(C(O)(C(F)(F)F)C(F)(F)F)ccc21`, the melting point was 91 to 92 °C.
Take `C#CCN1C(=O)COc2cc(F)c(N(C(C)=O)C(=O)C3=C(C(=O)OC)CCCC3)cc21`: the melting point was in the range of 153 to 154 °C.
Then `COc1ccc(C=C2NC(=O)NC2=O)cc1OCc1ccccc1`, with 242 to 244 °C.
As for `CCOC(CCCNS(=O)(=O)c1ccccc1)OCC`, the melting point is 109 °C.
Next, `Nc1nc(/C(=N/OCc2nnn[nH]2)C(=O)O)cs1`: 151 to 152 °C; `O=C(Sc1ccccc1)c1cc2cc(CCl)ccc2oc1=O`: 164 to 166 °C; `N#Cc1cc(=O)c2ccc(OCCCCl)cc2o1`: 124 to 125 °C.
Take `Cc1nnc2n1-c1sc(CC(=O)N3CCCCC3)cc1C(c1ccccc1Cl)=NC2C` (stereo not given): the melting point is 182 to 183 °C.
Regarding `CCOC(=O)c1ncn2c1CN=C(c1ccccc1F)c1cc(I)ccc1-2`, the melting point was in the range of 200 to 202 °C.
Next, `CC(C)Cn1cc(C(=O)O)c2ccc(Cl)cc21`: 205 to 206 °C; `Nc1c2c(nc3ccc(F)cc13)-c1ccccc1CC2`: 158 to 159 °C.
Take `COC(=O)CCc1ncccc1O`: the melting point fell in the range of 94 to 96 °C.
Next, `O=C(NCCCN1CCC(c2ccccc2)(c2ccccc2)CC1)N1CCOCC1c1ccc(F)c(F)c1` (stereo not given): 71 to 74 °C.
Next, `Oc1ccc(-c2cc3cc(Cl)cc(Cl)c3o2)cc1`: 184 to 186 °C; `O=C(Cc1ccc(O)cc1)Nc1c(-c2cc(Cl)ccc2O)c2cc(C(F)(F)F)ccc2[nH]c1=O`: 218 to 221 °C; `CCn1nc(C)cc1N`: 95 to 96 °C.
Then `Clc1ccc(/C=C/c2ccc(Cl)cc2)cc1`, with 176 °C; and `COCCC1(C(=O)N[C@@H](Cc2ccc(NC(=O)c3c(Cl)cccc3Cl)cc2)C(=O)O)CCCC1`, with 136 to 140 °C.
As for `COCOc1ccccc1-c1cc(-c2cccc(CN=[N+]=[N-])c2)c(C#N)c(N)n1`, the melting point was 99 to 100 °C.
As to `O=c1c(NCCCBr)c(OC2CCCCC2)c1=O`, the melting point is 68 to 70 °C.
Consider `CCOC(=O)c1cnc2ccc(OCC)nc2c1Cl`, for which the melting point was in the range of 61 to 64 °C.
`COc1ccc(N2C(=O)c3ccc(Cl)cc3C2CC(=O)N2CCC3(CC2)OCCO3)cc1` (stereo not given): the melting point was 156 to 157 °C.
Molecule `Oc1ccc(-c2cc3cc(O)ccc3o2)c(-c2ccccc2)c1` gave a melting point of 167 to 170 °C.
For the molecule `CCCCC1=CC(=C(Br)Br)OC1=O`, the melting point was in the range of 48 to 49 °C.
In turn, `CC(C)CCN1C(=O)C(NC(=O)Oc2cccc(N(C)C)c2)C(=O)N(c2ccccc2F)c2ccccc21` (stereo not given) showed a melting point of 193 to 194 °C.
For the molecule `O=C(O[C@H]1Cc2c(O)cc(O)cc2O[C@@H]1c1ccc(O)c(O)c1)c1cc(O)c(O)c(O)c1`, the melting point lay within 105 to 107 °C.
As for `COc1ccccc1CNC(=O)c1ccc2nc(NCc3ccccc3OC)ccc2c1`, the melting point was 108 °C.
Next, `Cc1cccc(C)c1NC(=O)/C=C1\SCC(=O)N1c1ccccc1`: 228 °C; `O=C(O)COc1cccc(CN2C(=O)C3(COc4cc5c(cc43)CCO5)c3ccccc32)c1` (stereo not given): 95 to 96 °C; `O=C1C(=O)c2ccccc2C2=C1SCC1(CCC(NC(=O)c3cccc(C(F)(F)F)c3)CC1)O2` (stereo not given): 266 to 267 °C.
Then `CCOC(=NC(=O)OC)NC(=O)Nc1cc(C(=O)OC)c(Cl)cc1F`, with 105 to 107 °C; and `CCC(O)(c1ccc(-c2ccccc2)cc1)C1CC=CC1` (stereo not given), with 82 to 84 °C.
